In patent US20230138395A1, “PHARMACEUTICAL COMPOSITIONS OF A THERAPEUTIC POLYENE MACROLIDE AND METHODS OF THEIR USE” (priority 2020, published 2023):
Values after ≈ are worked out from the molar mass of the structure shown. Values joined by “and” are separate entries in the source; they are usually repeats but may differ in a detail not shown here. Equal values may be shown once.

Tests used:
Cr. neoformans strains = test: MFC determination; assay type: cell-based, Cryptococcus neoformans; details: Cr. neoformans
[1] = tested on: Fusarium strains (Table 18); test: MFC determination, Table 18; assay type: cell-based, Fusarium spp.
[2] = tested on: Aspergillus fumigatus AF91; test: Disseminated Aspergillosis in immunocompromised murine model (CD-1 mice): tissue fungal burden; details: Experiment I; 1.0 mg/kg i.v., 7 days
[3] = tested on: individual Aspergillus spp. (Table 13, species not given); test: MFC determination, Table 13; assay type: cell-based; details: Aspergillus sp. of Table 13
[4] = tested on: all Aspergillus strains tested; test: MFC determination, summary; assay type: cell-based
[5] = tested on: individual Aspergillus spp. (Table 13, species not given); test: MIC testing (CLSI M38-A2), Table 13; assay type: cell-based; details: Aspergillus sp. of Table 13, caspofungin read as MEC
Candida albicans [6] = test: MIC testing (CLSI M27-A3); assay type: cell-based; parameters: MIC: unit not given beside the values; details: for MIC Range: in µg/mL
[7] = tested on: individual Aspergillus spp. (Table 15, species not named); test: MIC testing (CLSI M38-A2), Table 15; assay type: cell-based; details: Aspergillus sp. of Table 15, caspofungin read as MEC
C. krusei strains [8] = test: MFC determination; assay type: cell-based
Candida albicans SC5314 = test: Disseminated candidiasis in immunocompromised murine model (BALB/c mice): tissue fungal burden; assay type: in vivo; details: Experiment I; 0.35 mg/kg i.v., 7 days
[9] = tested on: individual Aspergillus spp. (Table 12, species not named); test: MIC testing (CLSI M38-A2), Table 12; assay type: cell-based; details: Aspergillus sp. of Table 12, caspofungin read as MEC
Fusarium strains [10] = test: MFC determination, Table 17; assay type: cell-based, Fusarium spp.; details: Fusarium strains (Table 17)
C. glabrata strains [11] = test: MIC testing (CLSI M27-A3); assay type: cell-based; parameters: MIC: unit not given beside the values
C. glabrata strains [12] = test: MFC determination; assay type: cell-based; parameters: MFC: unit not given beside the values
[13] = tested on: Fusarium strains (Table 18); test: MIC testing (CLSI M38-A2), Table 18; assay type: cell-based, Fusarium spp.
Fusarium strains [14] = test: MIC testing (CLSI M38-A2), Table 17; assay type: cell-based, Fusarium spp.; details: Fusarium strains (Table 17)
C. albicans SC5314 [15] = test: In vitro activity (MFC) against the infecting strain, Example 18; assay type: cell-based, Candida albicans; details: Candida albicans, read-out: MFC
[16] = tested on: individual Aspergillus spp. (Table 14, species not named); test: MIC testing (CLSI M38-A2), Table 14; assay type: cell-based; details: Aspergillus sp. of Table 14, caspofungin read as MEC
C. parapsilosis = test: MIC testing (CLSI M27-A3); assay type: cell-based; parameters: MIC: unit not given beside the values
C. krusei strains [17] = test: MIC testing (CLSI M27-A3); assay type: cell-based
[18] = tested on: Blastomyces dermatitidis, Coccidioides immitis, and Histoplasma capsulatum strains; assay type: cell-based; details: dimorphic fungal isolates; in µg/mL
A. fumigatus AF91 = test: In vitro activity (MFC) against the infecting strain, Example 17; assay type: cell-based, Aspergillus fumigatus; details: Aspergillus fumigatus, read-out: MFC
Description: Minimum Fungicidal Concentration: MFC determinations were performed according to the modifications previously described by Canton et al., Diagn. Microbiol. Infect. Dis., 45:203-206, 2003, and Ghannoum and Isham, Infectious Diseases in Clinical Practice, 15(4):250-253, 2007.
Specifically, the total contents of each clear well from the MIC assay were subcultured onto potato dextrose agar. To avoid antifungal carryover, the aliquots were allowed to soak into the agar and then were streaked for isolation once dry, thus removing the cells from the drug source. Fungicidal activity is defined as ≥99.9% reduction in the number of colony forming units (CFU)/ml from the starting inoculum count, while fungistatic activity is defined as <99.9% reduction. […] MIC and MFC values are considered to be equivalent if they are within 2 dilutions.

Candida albicans [19] = test: MFC determination; assay type: cell-based
C. albicans SC5314 [20] = test: In vitro activity (MIC) against the infecting strain, Example 18; assay type: cell-based, Candida albicans; details: Candida albicans, minimum effective concentration, read-out: MIC read as MEC
Penicillium strains = test: MFC determination; assay type: cell-based, Penicillium spp.
[21] = individual C. albicans strain with elevated MICs to non-polyene comparators (Table 22), listed as Cas
[22] = individual C. krusei strain with elevated MICs to non-polyene comparators (Table 22)
[23] = individual C. glabrata strain with elevated MICs to non-polyene comparators (Table 22), listed as Cas

Question: What does the source list for CC[C@H](C)C[C@H](C)CCCCCCCCC(=O)N[C@H]1C[C@@H](O)[C@@H](NCCN)NC(=O)[C@@H]2[C@@H](O)CCN2C(=O)[C@H]([C@H](O)CCN)NC(=O)[C@H]([C@H](O)[C@@H](O)c2ccc(O)cc2)NC(=O)[C@@H]2C[C@@H](O)CN2C(=O)[C@H]([C@@H](C)O)NC1=O [Caspofungin, caspofungin]?
Answer: MFC50 (Cr. neoformans strains; kills 50% of strains): > 32 µg/mL; MFC90 (Cr. neoformans strains; kills 90% of strains): > 32 µg/mL; MFC Range [1]: > 32 µg/mL; MFC50 ([1]; kills 50% of strains): > 32 µg/mL; MFC90 ([1]; kills 90% of strains): > 32 µg/mL; Kidney tissue fungal burden, Mean log CFUs ± the standard deviation [2]: 3.11 ± 0.62 log CFUs; Lung tissue fungal burden, Mean log CFUs ± the standard deviation [2]: 3.41 ± 0.64 log CFUs; MFC50 ([3]; kills 50% of strains): > 32 µg/mL; MFC90 ([3]; kills 90% of strains): > 32 µg/mL; MFC50 ([4]; kills 50% of strains): > 32 µg/mL; MFC90 ([4]; kills 90% of strains): > 32 µg/mL; MIC Range ([5]; in µg/mL): 0.25-1; MIC50 ([5]; inhibits 50% of strains): 0.25 µg/mL (≈ 0.229 µM); MIC90 ([5]; inhibits 90% of strains): 0.5 µg/mL (≈ 0.457 µM); MIC Range (Candida albicans [6]; Fluconazole-resistant C. albicans n = 7): 0.125-2; MIC Range (Candida albicans [6]; Fluconazole-susceptible C. albicans n = 13): 0.125-0.25; MIC50 (Candida albicans [6]; Fluconazole-susceptible C. albicans n = 13, inhibits 50% of strains): 0.25 µg/mL (≈ 0.229 µM); MIC90 (Candida albicans [6]; Fluconazole-susceptible C. albicans n = 13, inhibits 90% of strains): 0.25 µg/mL (≈ 0.229 µM); MIC (Candida albicans [6]; [21]): 1 (2×) and 2; MIC Range ([7]; in µg/mL): 0.25-1; MIC50 ([7]; inhibits 50% of strains): 0.25 µg/mL (≈ 0.229 µM); MIC90 ([7]; inhibits 90% of strains): 0.5 µg/mL (≈ 0.457 µM); MFC50 (C. krusei strains [8]; C. krusei, kills 50% of strains): 2 µg/mL (≈ 1.83 µM); MFC90 (C. krusei strains [8]; C. krusei, kills 90% of strains): 8 µg/mL (≈ 7.32 µM); MFC (C. krusei strains [8]; [22]): > 32 µg/mL; Brain tissue fungal burden, Mean log CFUs ± the standard deviation (Candida albicans SC5314): 1.22 ± 1.87 log CFUs; Kidney tissue fungal burden, Mean log CFUs ± the standard deviation (Candida albicans SC5314): 3.22 ± 1.26 log CFUs; MIC Range ([9]; in µg/mL): 0.125-8; MIC50 ([9]; inhibits 50% of strains): 0.25 µg/mL (≈ 0.229 µM); MIC90 ([9]; inhibits 90% of strains): 0.5 µg/mL (≈ 0.457 µM); MFC Range (Fusarium strains [10]; in µg/mL): >32; MFC50 (Fusarium strains [10]; kills 50% of strains): > 32 µg/mL; MFC90 (Fusarium strains [10]; kills 90% of strains): > 32 µg/mL; MIC Range (C. glabrata strains [11]; C. glabrata strains, in µg/mL): 0.25-8; MIC50 (C. glabrata strains [11]; C. glabrata, inhibits 50% of strains): 0.5 µg/mL (≈ 0.457 µM); MIC90 (C. glabrata strains [11]; C. glabrata, inhibits 90% of strains): 2 µg/mL (≈ 1.83 µM); MIC (C. glabrata strains [11]; [23]): 2 (2×) and 1 and 4 and 8; MFC50 (C. glabrata strains [12]; C. glabrata, kills 50% of strains): 1 µg/mL (≈ 0.915 µM); MFC90 (C. glabrata strains [12]; C. glabrata, kills 90% of strains): 32 µg/mL (≈ 29.3 µM); MFC (C. glabrata strains [12]; [23]): 32 (3×) and 16 and >32; MIC50 ([13]; inhibits 50% of strains): > 32 µg/mL; MIC90 ([13]; inhibits 90% of strains): > 32 µg/mL; MIC Range (Fusarium strains [14]; in µg/mL): 1-64; MIC50 (Fusarium strains [14]; inhibits 50% of strains): 32 µg/mL (≈ 29.3 µM); MIC90 (Fusarium strains [14]; inhibits 90% of strains): 32 µg/mL (≈ 29.3 µM); MFC (C. albicans SC5314 [15]): 32 µg/mL (≈ 29.3 µM); MIC Range ([16]; in µg/mL): 0.125-2; MIC50 ([16]; inhibits 50% of strains): 0.125 µg/mL (≈ 0.114 µM); MIC90 ([16]; inhibits 90% of strains): 0.25 µg/mL (≈ 0.229 µM); MIC Range (C. parapsilosis; C. parapsilosis strains, in µg/mL): 0.25-2; MIC50 (C. parapsilosis; C. parapsilosis, inhibits 50% of strains): 0.5 µg/mL (≈ 0.457 µM); MIC90 (C. parapsilosis; C. parapsilosis, inhibits 90% of strains): 2 µg/mL (≈ 1.83 µM); MIC (C. parapsilosis; individual C. parapsilosis strain with elevated MICs to non-polyene comparators (Table 22), in µg/mL): 2; MIC Range (C. krusei strains [17]; C. krusei strains, in µg/mL): 0.5-16; MIC50 (C. krusei strains [17]; C. krusei, inhibits 50% of strains): 1 µg/mL (≈ 0.915 µM); MIC90 (C. krusei strains [17]; C. krusei, inhibits 90% of strains): 4 µg/mL (≈ 3.66 µM); MIC (C. krusei strains [17]; [22]): 16 µg/mL (≈ 14.6 µM); MIC Range [18]: 0.03-0.5; MFC (A. fumigatus AF91): > 16 µg/mL; MFC Range (Candida albicans [19]; Fluconazole-susceptible C. albicans n = 13, in µg/mL): 0.5-32; MFC50 (Candida albicans [19]; Fluconazole-susceptible C. albicans n = 13, kills 50% of strains): 0.25 µg/mL (≈ 0.229 µM); MFC90 (Candida albicans [19]; Fluconazole-susceptible C. albicans n = 13, kills 90% of strains): 2 µg/mL (≈ 1.83 µM); MFC (Candida albicans [19]; [21]): >32 (2×) and 32; MIC (C. albicans SC5314 [20]): 0.25 µg/mL (≈ 0.229 µM); MFC50 (Penicillium strains; kills 50% of strains): > 32 µg/mL; MFC90 (Penicillium strains; kills 90% of strains): > 32 µg/mL
